Test results from article PMC6522510 (Nature Communications, 2019).

Legend:
Design in all cases: species or system AML cell lines (8); Primary HTS, single concentration about 10 uM, Cell Titer Glo viability; log10 luminescence, per cent inhibition relative to cycloheximide control
Conditions in all cases: 72 h, relative to cycloheximide control, log10 luminescence; inhibitor
CMS = tested on: CMS
MV4-11 = tested on: MV4-11
MOLM-13 = tested on: MOLM-13
M07e = tested on: M07e
CHRF288-11 = tested on: CHRF288-11
ML-2 = tested on: ML-2
U937 = tested on: U937
CMK = tested on: CMK

Compound | CMS %inh (CMS) | MV4-11 %inh (MV4-11) | MOLM-13 %inh (MOLM-13) | M07e %inh (M07e) | CHRF288-11 %inh (CHRF288-11) | ML-2 %inh (ML-2) | U937 %inh (U937) | CMK %inh (CMK)
CC(=O)N1CCC(Nc2ncc3cc(Oc4ccc(F)cc4F)c(=O)n(C)c3n2)CC1 [SJ000580990-1] | 0.4119% | 0.8846% | -1.534% | 1.958% | 0.9354% | -1.665% | 4.841% | 3.354%
Fc1ccc(-c2c(-c3ccncc3)[nH]c3nccnc23)cc1 [SJ000580991-1] | 2.205% | -5.653% | -0.4618% | -1.27% | 0.1739% | -4.337% | 0.7484% | 11.62%
Nc1c(C(=O)c2cccc(CCC3(O)CCCC3)c2)cnn1-c1ccc(F)cc1 [SJ000580994-1] | 0.1004% | 2.023% | 0.5318% | 2.495% | 5.85% | -0.2918% | 3.468% | 2.532%
Cn1cc(C2=C(c3cn(CCCO)c4ccccc34)C(=O)NC2=O)c2ccccc21 [SJ000580995-1] | 6.597% | 37.67% | 52.73% | 3.572% | 44.69% | -3.665% | 2.993% | 64.37%
CCCCCNC(=O)[C@@H]1CCCN2C(=O)CC[C@H](NC(=O)[C@H](Cc3ccc(OP(=O)(O)O)cc3)NC(C)=O)C(=O)N12 [SJ000580996-1] | -2.301% | -4.998% | -0.4821% | -1.329% | -2.344% | -1.38% | 0.5533% | -6.908%
COc1ccc(CCN=C2NC(=O)/C(=C/c3ccc4ncccc4c3)S2)cc1 [SJ000580998-1] | -0.7764% | -1.039% | 2.923% | 1.057% | -1.93% | -1.934% | 0.5801% | -3.047%
CNCC#Cc1c(F)ccc2c1/C(=C/c1[nH]ccc1OC)C(=O)N2 [SJ000580999-1] | 90.97% | 85.05% | 105.9% | 73.32% | 56.9% | 60.28% | 85.1% | 104.6%
O=C1NC(O)C(c2c[nH]c3ccccc23)=C1c1c[nH]c2ccccc12 (centres unmarked) [SJ000581000-1] | -2.539% | 0.3489% | -0.2184% | -1.63% | 3.04% | -2.056% | -0.5983% | -1.548%
Cn1cc(C2=C(Oc3ccccc3)C(=O)NC2=O)c2ccccc21 [SJ000581001-1] | -3.067% | -0.8354% | -0.02006% | -0.2429% | -2.432% | -1.623% | 0.6544% | -0.6422%
Nc1c(C(=O)c2cccc(-c3cccnc3)c2)cnn1-c1ccc(F)cc1F [SJ000581002-1] | 5.431% | 0.1873% | 19.66% | 15.2% | 23.74% | 15.07% | 25.61% | 96.76%
